The target of one test is T1, ST3O (Sus scrofa, UniProt Q02745).
T1 sequence (Q02745 28-343 limits assumed): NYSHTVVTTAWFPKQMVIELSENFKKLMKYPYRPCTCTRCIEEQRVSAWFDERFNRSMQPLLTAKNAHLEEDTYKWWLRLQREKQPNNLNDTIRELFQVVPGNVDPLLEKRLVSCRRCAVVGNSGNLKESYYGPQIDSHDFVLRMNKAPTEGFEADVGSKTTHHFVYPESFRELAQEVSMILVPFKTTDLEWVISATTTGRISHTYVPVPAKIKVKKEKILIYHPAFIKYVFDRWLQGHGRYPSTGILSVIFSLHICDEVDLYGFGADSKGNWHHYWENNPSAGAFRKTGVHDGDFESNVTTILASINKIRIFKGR
Kind of test: Acceptor specificity of ST3O in COS-1 media.

The next test addresses T2, ST3 (Homo sapiens, UniProt Q11206).
T2 sequence (Q11206 1-332 isoform Q11206-2): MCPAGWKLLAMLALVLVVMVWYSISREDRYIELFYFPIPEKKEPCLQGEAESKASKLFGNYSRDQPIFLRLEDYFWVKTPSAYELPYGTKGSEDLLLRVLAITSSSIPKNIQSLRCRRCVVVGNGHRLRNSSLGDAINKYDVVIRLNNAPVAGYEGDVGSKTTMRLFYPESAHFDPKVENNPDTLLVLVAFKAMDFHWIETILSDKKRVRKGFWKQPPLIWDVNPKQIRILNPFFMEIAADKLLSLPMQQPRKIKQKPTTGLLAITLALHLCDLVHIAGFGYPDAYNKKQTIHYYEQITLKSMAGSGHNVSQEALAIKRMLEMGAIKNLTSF
Kind of test: Acceptor specificity of soluble ST3 (AZ3) in COS-1 media. As to conditions: for sialic acid incorporation by ST3 enzyme: data not shown.

The subject of the next test is ST3N. The experiment in a line: Acceptor specificity of ST3N in COS-1 media.
The next test addresses T3, human ST3O (Homo sapiens, UniProt Q11201).
T3 construct: lacked the first 44 amino acids of the open reading frame; made in house; host or cells: COS-1 cells (transient, culture medium)
T3 sequence (Q11201 45-340): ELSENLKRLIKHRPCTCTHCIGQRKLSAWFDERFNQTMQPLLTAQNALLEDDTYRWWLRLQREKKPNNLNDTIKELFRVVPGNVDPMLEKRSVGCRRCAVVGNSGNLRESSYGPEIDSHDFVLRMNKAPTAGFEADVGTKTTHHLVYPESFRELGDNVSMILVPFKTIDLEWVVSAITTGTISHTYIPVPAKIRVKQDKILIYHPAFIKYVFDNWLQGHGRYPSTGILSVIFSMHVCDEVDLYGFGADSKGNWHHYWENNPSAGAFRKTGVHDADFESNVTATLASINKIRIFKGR
The experiment in a line: Acceptor specificity of soluble human ST3O. As to conditions: acceptor 0.2 mM. Type of test: biochemical.

Another test concerns the target T4, porcine ST3O (Sus scrofa, UniProt Q02745).
T4 sequence (Q02745 28-343 limits assumed): T1 sequence (Q02745 28-343 limits assumed)
The experiment in a line: Acceptor specificity of recombinant porcine ST3O. Type of test: biochemical. As to conditions: acceptor 0.2 mM.

A further test deals with T5, human ST3N (Homo sapiens, UniProt Q11203).
T5 sequence (Q11203 62-375): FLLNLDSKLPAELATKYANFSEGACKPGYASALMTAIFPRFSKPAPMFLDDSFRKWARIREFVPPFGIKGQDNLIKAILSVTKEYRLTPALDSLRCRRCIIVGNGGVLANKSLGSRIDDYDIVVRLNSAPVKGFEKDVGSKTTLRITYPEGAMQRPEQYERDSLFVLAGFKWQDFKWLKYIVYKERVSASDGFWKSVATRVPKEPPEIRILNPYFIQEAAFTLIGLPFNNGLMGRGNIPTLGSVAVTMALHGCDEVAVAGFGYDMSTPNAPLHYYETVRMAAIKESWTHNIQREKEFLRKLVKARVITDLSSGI
The experiment in a line: Acceptor specificity of soluble human ST3N fusion protein. As to conditions: acceptor 0.2 mM; relative to LNT.

In a further test the test system is rat ST3N. The experiment in a line: Acceptor specificity of soluble rat ST3N fusion protein. As to conditions: acceptor 0.2 mM; relative to LNT.
A further test deals with T6, α2,3-N sialyltransferase (Rattus norvegicus, UniProt Q02734).
T6 construct: made in house; host or cells: COS-1 cells (transient, culture medium)
T6 sequence (Q02734 29-374 limits assumed): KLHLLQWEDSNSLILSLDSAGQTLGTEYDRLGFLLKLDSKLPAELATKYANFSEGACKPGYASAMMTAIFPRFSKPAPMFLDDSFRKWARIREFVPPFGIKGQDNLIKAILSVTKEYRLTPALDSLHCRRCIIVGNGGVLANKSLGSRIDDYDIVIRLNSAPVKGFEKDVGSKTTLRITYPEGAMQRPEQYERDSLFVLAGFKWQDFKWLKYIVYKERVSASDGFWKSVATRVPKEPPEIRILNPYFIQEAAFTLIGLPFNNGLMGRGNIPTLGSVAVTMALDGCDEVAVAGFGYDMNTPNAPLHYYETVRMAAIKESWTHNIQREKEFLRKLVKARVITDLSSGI
The experiment in a line: Acceptor use by soluble α2,3-N sialyltransferase secreted from COS-1 cells (pBD122). As to conditions: concentrated COS-1 media. Type of test: biochemical.

For `CC(=O)N[C@H]1[C@H](O[C@H]2[C@@H](O)[C@@H](CO)O[C@@H](O[C@H]3[C@H](O)[C@@H](O)C(O)O[C@@H]3CO)[C@@H]2O)O[C@H](CO)[C@@H](O[C@@H]2O[C@@H](C)[C@@H](O)[C@@H](O)[C@@H]2O)[C@@H]1O[C@@H]1O[C@H](CO)[C@H](O)[C@H](O)[C@H]1O` (stereo partly drawn) [Galβ1,3(Fucα1,4)GlcNAcβ1,3Galβ1,4Glc], the “Relative rate (%) ST3O” value on ST3O (acceptor 0.2 mM) and at ST3O (acceptor 2.0 mM) was 0% in each case. Also, the “Relative rate (%) ST3” value at ST3 (acceptor 2.0 mM) stood at 0%. In addition, the “Relative rate (%) ST3N” value in the test with ST3N (acceptor 0.2 mM) and with ST3N (acceptor 2.0 mM) was 0% throughout.
In the case of `CC(=O)N[C@H]1C(O)O[C@H](CO)[C@H](O)[C@@H]1O[C@@H]1O[C@H](CO)[C@H](O)[C@H](O)[C@H]1O` (stereo partly drawn) [Galβ1,3GalNAc], the “Relative rate (%) ST3O” value on ST3O (acceptor 0.2 mM) and on ST3O (acceptor 2.0 mM) was 100% each time. Besides, the “Relative Activity (%) Human” value at human ST3O is 100%. The “Relative rate (%) ST3” value at ST3 (acceptor 0.2 mM) and on ST3 (acceptor 2.0 mM) was 100% throughout. In addition, at porcine ST3O, the “Relative Activity (%) Porcine” value came out at 100%.
Turning to `CC(=O)N[C@H]1C(O)O[C@H](CO)[C@@H](O)[C@@H]1O[C@@H]1O[C@H](CO)[C@H](O)[C@H](O)[C@H]1O` (stereo partly drawn) [Galβ1,3GlcNAc], the “Relative rate (%) ST3O” value on ST3O (acceptor 0.2 mM) is 2%. Moreover, at ST3 (acceptor 0.2 mM), the “Relative rate (%) ST3” value came to 0%.
Regarding `CC(=O)N[C@H]1[C@H](O[C@H]2[C@@H](O)[C@@H](CO)O[C@@H](O[C@H]3[C@H](O)[C@@H](O)C(O)O[C@@H]3CO)[C@@H]2O)O[C@H](CO)[C@@H](O[C@@H]2O[C@H](CO)[C@H](O)[C@H](O)[C@H]2O)[C@@H]1O[C@@H]1O[C@@H](C)[C@@H](O)[C@@H](O)[C@@H]1O` (stereo partly drawn) [Galβ1,4(Fucα1,3)GlcNAcβ1,3Galβ1,4Glc], the “Relative rate (%) ST3O” value at ST3O (acceptor 0.2 mM) and at ST3O (acceptor 2.0 mM) was 0% each time. For the same compound, the “Relative rate (%) ST3” value at ST3 (acceptor 0.2 mM) stood at 0.1%; on ST3 (acceptor 2.0 mM), 1%. Also, the “Relative rate (%) ST3N” value with ST3N (acceptor 0.2 mM) and with ST3N (acceptor 2.0 mM) was 0% each time.
Turning to `CC(=O)N[C@H]1C(O)O[C@H](CO)[C@@H](O[C@@H]2O[C@H](CO)[C@H](O)[C@H](O)[C@H]2O)[C@@H]1O` (stereo partly drawn) [Galβ1,4GlcNAc], the results for the “Relative rate (%) ST3O” value on ST3O (acceptor 0.2 mM) and on ST3O (acceptor 2.0 mM) were 0% and 0.9%, respectively. In addition, on human ST3O, the “Relative Activity (%) Human” value came out at 0%. For the same compound, the “Relative rate (%) ST3” value on ST3 (acceptor 0.2 mM) was found to be 4%; at ST3 (acceptor 2.0 mM), 23%. The “Relative Activity (%) Porcine” value at porcine ST3O is on record as 0%.
For the compound `CC(=O)N[C@H]1[C@H](O[C@H]2[C@@H](O)[C@@H](CO)O[C@@H](O[C@H]3[C@H](O)[C@@H](O)C(O)O[C@@H]3CO)[C@@H]2O)O[C@H](CO)[C@@H](O)[C@@H]1O[C@@H]1O[C@H](CO)[C@H](O)[C@H](O)[C@H]1O` (stereo partly drawn) [LNT, lacto-N-tetrose], the “Relative rate (%) ST3O” value on ST3O (acceptor 0.2 mM) is given as 0.5%; on ST3O (acceptor 2.0 mM) it was 3%. Moreover, at human ST3N, the “Relative Activity (%) Human” value is reported as 100%. The “Relative rate (%) ST3” value at ST3 (acceptor 0.2 mM) is listed as 0%; at ST3 (acceptor 2.0 mM), 2.3%. Also, the “Relative activity (%) Rat” value with rat ST3N is listed as 100%. The “Relative rate (%) ST3N” value with ST3N (acceptor 0.2 mM) and with ST3N (acceptor 2.0 mM) was 100% throughout.
For `CC(=O)N[C@H]1[C@H](O[C@H]2[C@@H](O)[C@@H](CO)O[C@@H](O[C@H]3[C@H](O)[C@@H](O)C(O)O[C@@H]3CO)[C@@H]2O)O[C@H](CO)[C@@H](O[C@@H]2O[C@H](CO)[C@H](O)[C@H](O)[C@H]2O)[C@@H]1O` (stereo partly drawn) [LNnT, Galβ1,4GlcNAcβ1,3Galβ1,4Glc], the “Relative rate (%) ST3O” value on ST3O (acceptor 0.2 mM) was determined as 0%; on ST3O (acceptor 2.0 mM), 0.5%. Moreover, on human ST3N, the “Relative Activity (%) Human” value was found to be 5%. Besides, the “Relative rate (%) ST3” value worked out at 24% on ST3 (acceptor 0.2 mM) and 49% on ST3 (acceptor 2.0 mM). Also, the “Relative activity (%) Rat” value in the test on rat ST3N was 4%. The “Relative rate (%) ST3N” value in the test with ST3N (acceptor 0.2 mM) came to 4%; in the test with ST3N (acceptor 2.0 mM) it was 18%.
Consider “.varies.1 -acid glycoprotein: intact glycoprotein examined as acceptor”, for which the “sialic acid incorporation by ST3 enzyme” value in the test with ST3 is on record as “not any significant amount of sialic acid incorporated”.
As to “Asialo-α1 -acid glycoprotein: glycoprotein acceptor (Galβ1,4GlcNAc-R)”, the “Relative rate (%) ST3O” value in the test with ST3O (acceptor 0.2 mM) turned out to be 0%. In addition, the “Relative rate (%) ST3” value in the test with ST3 (acceptor 0.2 mM) is 51%. For the same compound, the “use as acceptor by secreted enzyme” value in the test with α2,3-N sialyltransferase is “capable of sialylating”.
On to “Asialofetuin: glycoprotein acceptor (Galβ1,3GalNAc-Thr/Ser and Galβ1,4GlcNAc-R)”, for which the “Relative rate (%) ST3O” value with ST3O (acceptor 0.2 mM) came to 26%. Moreover, in the test with ST3 (acceptor 0.2 mM), the “Relative rate (%) ST3” value was 92%.
Regarding “GalNAcβ1,4(NeuAcα2-3)Galβ1,4Glcβ1-Cer [GM2]”, the “Relative rate (%) ST3O” value on ST3O (acceptor 0.2 mM) is recorded as 0.3%. In the test with ST3N (acceptor 0.2 mM), the “Relative rate (%) ST3N” value is recorded as 0%.
On to GalNAcβ1,4Galβ1,4Glcβ1-Cer [Asialo-GM2], for which the “Relative rate (%) ST3O” value at ST3O (acceptor 0.2 mM) came out at 0.5%. Besides, the “Relative rate (%) ST3” value on ST3 (acceptor 0.2 mM) turned out to be 2%. Also, in the test with ST3N (acceptor 0.2 mM), the “Relative rate (%) ST3N” value came to 0%.
Regarding “Galβ1,3GalNAcβ1,4(NeuAcα2-3)Galβ1,4Glcβ1-Cer [GM1]”, on ST3O (acceptor 0.2 mM), the “Relative rate (%) ST3O” value stood at 47%. In addition, the “Relative Activity (%) Human” value at human ST3O worked out at 41%. Moreover, on ST3 (acceptor 0.2 mM), the “Relative rate (%) ST3” value is 27%. In addition, the “Relative rate (%) ST3N” value in the test on ST3N (acceptor 0.2 mM) turned out to be 0%. In addition, the “Relative Activity (%) Porcine” value on porcine ST3O is reported as 44%.
Taken in the same sequence, the figures for “Galβ1,3GalNAcβ1,4Galβ1,4Glcβ,1-Cer [Asialo-GM1]” were 88%, 84%, 64%, 8% and 85%.
In the case of Galβ1,4Glcβ1-Cer [LacCer], on ST3O (acceptor 0.2 mM), the “Relative rate (%) ST3O” value is reported as 0.1%. Besides, the “Relative rate (%) ST3” value on ST3 (acceptor 0.2 mM) amounted to 4%. Also, the “Relative rate (%) ST3N” value in the test with ST3N (acceptor 0.2 mM) turned out to be 0%.
As to NeuAcα2,3Galβ1,4Glcβ1-Cer [GM3], at ST3O (acceptor 0.2 mM), the “Relative rate (%) ST3O” value is on record as 0.1%. Moreover, the “Relative rate (%) ST3” value on ST3 (acceptor 0.2 mM) amounted to 0%. Also, the “Relative rate (%) ST3N” value with ST3N (acceptor 0.2 mM) is reported as 0%.
Consider “intact fetuin: glycoprotein examined as acceptor”, for which, in the test with ST3, the “sialic acid incorporation by ST3 enzyme” value was “not any significant amount of sialic acid incorporated”.
